Results on 1 compound are retold here after article PMC11784013, “Potassium molybdate blocks APN-dependent coronavirus entry by degrading receptor via PIK3C3-mediated autophagy” (Journal of Virology, 2024).

The test system of assay [1] is PRCV. Put plainly: PRCV infection of ST cells (RT-qPCR, TCID50, western blot, IFA). Conditions: PRCV 0.1 MOI; for PRCV N level, western blot, relative to WT without PM (=1): PM 10 mM, 16 h. It is filed as cell-based, porcine respiratory coronavirus. On the procedure:
Fig 1 PM inhibits TGEV and PRCV infection in ST cells. (A) A cytotoxicity assay of PM in ST cells. ST cells cultured in a 96-well plate were incubated with different concentrations of PM for 24 h, which was tested by Cell Counting Kit 8. (B) Time course for PM inhibiting TGEV or PRCV or PEDV infection assay. (C–F) The ST cells, pretreated with PM at the indicated concentrations for 1 h were infected with TGEV Miller (0.1 MOI) or PRCV (0.1 MOI) for 1 h and were again treated with PM at 37°C for 17 h. The cell samples were collected and examined by real-time quantitative PCR (RT-qPCR), TCID50, western blot (C and D), and immunofluorescence assay (IFA) (E and F), scale bar: 50 µm. (G) Vero-E6 cells were treated with indicated PM and infected with PEDV LJX 01/2014 according to the time course of Fig. 1B, which was detected by TCID50 and western blot. Results are presented as mean ± SD of data from three independent experiments. ns, no significant; **, P ≤ 0.01; ***, P ≤ 0.001.
Fig 3 PM inhibits TGEV and PRCV infection by potassium ion and molybdate synergy. (A and B) The ST cells, pretreated with potassium chloride (KCl) or sodium molybdate (Na2MoO4) at the indicated concentrations for 1 h were infected with TGEV Miller (0.1 MOI) for 1 h and were again treated with KCl or Na2MoO4 at 37°C for 17 h. The cell samples were measured by RT-qPCR. (C and D) ST cells were treated with PM (K2MoO4, 10 mM), KCl (20 mM), Na2MoO4 (10 mM), sodium chloride (NaCl, 10 mM), K2MoO4 (10 mM), and NaCl (20 mM) as well as Na2MoO4 (10 mM) and KCl (20 mM) for 1 h and then infected with TGEV Miller (0.1 MOI) or PRCV (0.1 MOI) for 17 h, which was determined by RT-qPCR and TCID50. Results are presented as mean ± SD of data from three independent experiments. ***, P ≤ 0.001; ns, no significance.
Total RNA was extracted using RNAiso reagent (TaKaRa, Japan, 9109) and reverse transcribed into cDNA using HiScript Q RT SuperMix for qPCR (Vazyme, China, R223-01), both of which followed the manufacturer’s recommendations. The TGEV and PRCV virus copy numbers were detected by the TaqMan probe-based RT-qPCR method developed previously in our laboratory ([59]). Relative qPCR was also performed using ChamQ SYBR qPCR master mix (Vazyme, China, Q311-02), and the results were calculated via the 2^-ΔΔCT method.
Fig. S8. PM inhibits PRCV infection by degrading APN via PIK3C3-mediated autophagy. (A-C) WT ST cells and PIK3C3 KO ST cells were treated with PM (10 mM) and infected with PRCV (0.1 MOI) for 16 h. Then the APN, PIK3C3, ATG14, BECN1, P62, PRCV N and LC3 were detected by western blot (A), and viral titers and PRCV N mRNA level were determined by TCID50 (B) and RT-qPCR (C) . (D-F) WT ST cells and PIK3C3 KO ST cells transfected with pCMV-Myc and pCMV-Myc-PIK3C3 respectively for 24 h were treated with PM (10 mM) and infected with PRCV (0.1 MOI) for 16 h. The APN, PIK3C3, P62, PRCV N and LC3 were determined by western blot (D). TCID50 (E) and RT-qPCR (F) were performed to detect viral titers and PRCV N m RNA level. All western blot results were calculated by Image J. Results are presented as mean ± SD of data from three independent experiments (also on this page, place not known: 6 8 10 12 Viral load(log copies/ul) *** 2 4 6 8 log10 TCID50/ml *** 6 8 10 12 + Viral load(log copies/ul) PIK3C3-Myc + - + + + *** *** 2 4 6 8 log10 TCID50/ml *** + + + + PIK3C3-Myc - - - + - + + + *** WT KO PM (C). WT KO PM PRCV PM - + + PRCV + + + WT PIK3C3 KO PIK3C3 PRCV PIK3C3-Myc - - - + PM - + + + PRCV + + + + WT PIK3C3 KO 0 0) […]
A general note: In qPCR the cycle at which signal appears reflects the starting amount.

The subject of assay [2] is BECN1. In words: BECN1 expression in ST cells (western blot). The class given is cell-based, porcine. The note with it: Fig. S8A, PM 10 mM, PRCV 0.1 MOI, 16 h. On the procedure: (§1) Fig 7 PM degrades APN expression via activating PIK3C3-mediated autophagy. (A) Graphical representation for autophagy and the targets of different autophagy inhibitors. (B) ST cells were treated with PM (10 mM) in the presence and absence of 3-MA (20 mM), SBI0206965 (20 µM), and 3BDO (30 µM) for 16 h, and the APN expression was detected by western blot. (C) ST cells were treated with PM (10 mM) in the presence and absence of 3-MA (20 mM) for 16 h, and the APN, PIK3C3, ATG14, BECN1, P62, and LC3 were measured by western blot. (D) ST cells were transfected with PIK3C3 siRNA-1, PIK3C3 siRNA-2, PIK3C3 siRNA-3, PIK3C3 siRNA-4, and NC siRNA for 24 h, the PIK3C3 expression was detected by western blot. […] The APN, PIK3C3, ATG14, BECN1, P62, and LC3 were detected by western blot. […] (G) PIK3C3 was detected by western blot in WT ST cells and PIK3C3 KO ST cells. (H) WT ST cells and PIK3C3 KO ST cells were treated with PM (10 mM) for 16 h and then the APN, PIK3C3, ATG14, BECN1, P62, and LC3 were detected by western blot. […] The APN, PIK3C3, P62, and LC3 were detected by western blot. All western blot results were calculated by Image J. All experiments were performed in triplicate.
(§2) Fig. S8. […] Then the APN, PIK3C3, ATG14, BECN1, P62, PRCV N and LC3 were detected by western blot (A), and viral titers and PRCV N mRNA level were determined by TCID50 (B) and RT-qPCR (C) . […]

The test system of assay [3] is ATG14. Put plainly: ATG14 expression in ST cells (western blot). The class given is cell-based, porcine. The note with it: Fig. S8A, PM 10 mM, PRCV 0.1 MOI, 16 h. On the procedure:
as §1, §2
(In general: In western blotting, separated proteins are transferred to a membrane and probed.)

Consider `[K+].[K+].[O]=[Mo](=[O])([O-])[O-]` [PM, potassium molybdate], for which the “PRCV N level, western blot, relative to WT without PM (=1)” value is reported as 0.81 in assay [1] (Fig. S8A, PIK3C3 KO ST cells); 0 in assay [1] (Fig. S8A, WT ST cells); 0 in assay [1] (Fig. S8D, PIK3C3 KO ST cells with PIK3C3-Myc); 0.78 in assay [1] (Fig. S8D, PIK3C3 KO ST cells without PIK3C3-Myc); 0 in assay [1] (Fig. S8D, WT ST cells with pCMV-Myc). In assay [1] (ST cells, PM 1 h pretreatment and 17 h after infection, RT-qPCR, TCID50, western blot, IFA), the PRCV infection entry is listed as “effectively restricted”. In addition, the “BECN1 level, western blot, relative to WT without PM (=1)” value in assay [2] (PIK3C3 KO ST cells) is 0.95; in assay [2] (WT ST cells), 1.01. Also, the “ATG14 level, western blot, relative to WT without PM (=1)” value in assay [3] (PIK3C3 KO ST cells) is reported as 1.03; in assay [3] (WT ST cells), 1.07.
